Legend:
[1] = Movement disorder in free-swimming zebrafish embryos; assay type: in vivo; conditions: five days
From the text: Note that the embryos were not anesthetized. Scale bar: 0.1 mm.

[2] = tested on: T-ALL cells isolated from Tg(rag2:Myc; rag2:EGFP) zebrafish; assay: Zebrafish embryos transplanted with T-ALL cells, GFP-positive leukemic area; assay type: in vivo
From the text: (n=10) N.S.; not significant, **P<0.01 and ****P<0.0001 by two-tailed Welch's t-test.

[3] = tested on: KOPT-K1 cells; assay: Cell cycle status by PI flow cytometry; assay type: cell-based, human; conditions: 24 hours
Experimental: Relative DNA content of cells in each of the samples was determined by measuring PI (propidium iodide) staining using flow cytometry. The results are illustrated in FIG. 31A-FIG. 31B.
Relative DNA content of cells in each of the samples was determined as described above.

[4] = biological target: T1, PP2A subunits in KOPT-K1 cell lysates (Homo sapiens, UniProt P30153+P67775+Q16537); assay: Cellular thermal shift assay (CETSA), PP2A subunits; assay type: binding; conditions: PPZ at 10 μM, one hour
T1 construct: are endogenously expressed by KOPTK1 cells; endogenous in cells; host or cells: KOPT-K1 T-ALL cells / lysates
From the text: The cell lysates were then ultra-centrifuged to precipitate the aggregated pool of the protein, followed by quantification of the remaining soluble protein fraction by immunoblotting with antibodies specific to each of the PP2A subunits.
A similar experiment was set up to examine target engagement specificity of iPAP1 to PP2A subunits in KOPT-K1 cells (FIG. 18G-FIG. 18L). […] A western blot of the KOPT-K1 cell lysates is illustrated in FIG. 19B.

[5] = tested on: α and β tubulins in KOPT-K1 cell lysates; assay: Cellular thermal shift assay (CETSA), tubulins; assay type: binding, human
Experimental: Data are presented as means±s.d. (n=3, biological replicates). The quantitation of levels α and β tubulins detected by specific antibodies was determined using western blotting (FIG. 19E). Alpha (α) and tubulin levels were quantified during CETSA by Image J software of KOPT-K1 cell lysates treated or untreated with iPAP1 at various temperatures for 3 minutes. […] The CETSA curves for KOPT-K1 cell lysates with and without the addition of iPAP1 after incubation for 3 minutes are shown in FIG. 19F and FIG. 19G. […] Data are presented as means±s.d. (n=3, biological replicates). The quantitation of levels α and β tubulins detected by specific antibodies using western blotting (FIG. 19H). α and β tubulin levels were quantified during CETSA by Image J software of KOPT-K1 cell lysates treated or untreated with iPAP1 at various temperature for 3 minutes.

[6] = tested on: KOPT-K1 cells; assay: Microtubule and chromatin staining of cytospins; assay type: cell-based, human; conditions: 24 hours
[7] = tested on: p-ERK and p-AKT in KOPT-K1 cells; assay: Western blot of p-ERK and p-AKT; assay type: cell-based, human; conditions: three hours
From the text: Levels of the PP2A endogenous substrates p-ERK and p-AKT in KOPT-K1 cells were examined because of the importance of the MAPK/ERK and PI3K/AKT/mTOR pathways in cancer cells.

[8] = tested on: KOPT-K1 cells; assay: KOPT-K1 cell viability (PrestoBlue), IC50 after 72 hours; assay type: cell-based, human
Experimental: For IC50 calculation, KOPT-K1 cells were treated with each of the compounds at various concentrations for 72 hours, followed by the determination of viable cell numbers with PrestoBlue® cell viability reagent. For the PP2A phosphatase activity assay, KOPT-K1 cells were treated with each of the compounds at 10 μM for 3 hours before phosphatase activity was measured. Dopamine D2 receptor activity was monitored in HEK293T cells coexpressing the dopamine D2 receptor, modified G protein and SRE luciferase reporter. Cells were treated with each of the compound at 10 μM for 3 hours, then lysed for the luciferase reporter assay.
For IC50 calculations, KOPT-K1 cells were treated with each of the compound at various concentrations for 72 hours, then their viability was examined by PrestoBlue® Cell Viability Reagent (Thermo Fisher Scientific). For PP2A phosphatase activity assay, KOPT-K1 cells were treated with each of the compound at 10 μM for three hours before the activity of PP2A was quantified using PP2A Immunoprecipitation Phosphatase Assay Kit (Merck Millipore®). DRD2 activity was monitored in HEK293T cells expressing DRD2, modified G protein and SRE luciferase reporter. Cells were treated with each of the compounds at 10 μM for three hours, then lysed for luciferase reporter assay. […] The biochemical assays were performed as indicated in Examples 7 and 8.

[9] = tested on: KOPT-K1, SUPT-13 and RPMI-8402 cells; assay: Dose-response viability in three T-ALL cell lines, 72 hours; assay type: cell-based, human
Experimental: Viable cells are shown on the Y axis as a percent of the DMSO control cells. Data are presented as means±s.d. (n=3). Data are presented as means±s.d. […] The IC50 for iPAP1 is 200 to 400 nM for these cell lines.
(Perrotti and Neviani, Cancer Metastasis Rev. 27(2):159-68 (2008); Sangodkar et al., J. Clin. Invest. 127(6):2081-2090 ([…])). […] Data are presented as means±s.d.

[10] = Peripheral blood platelet counts; assay type: in vivo, C57BL/6J mice; conditions: 80 mg/kg/day intraperitoneally, seven consecutive days
Experimental: The peripheral blood platelet counts in C57BL/6J mice treated with either by DMSO or iPAP1 at 80 mg/kg/day intraperitoneally for seven consecutive days, were measured. […] Other blood cell counts were unchanged in treated compared to control mice. iPAP1 treatment of mice increased the platelet count, due to effects of the compound on endoreduplication of megakaryocytes.

[11] = tested on: PLK1, PLK4, AURKA, KIF11, SASS6, RCC1, HAUS8, TPX2, PCNT, CENPJ and TUBG1 in KOPT-K1 cells; assay: Relative mRNA expression of spindle monopolarity genes; assay type: cell-based, human; conditions: 1 μM, 6 hours
Experimental: The relative mRNA expression of genes whose inducible CRISPR-cas9 knockout causes cell cycle arrest in prometaphase yielding spindle monopolarity (PLK1, PLK4, AURKA, KIF11, SASS6, RCC1, HAUS8, TPX2, PCNT, CENPJ and TUBG1) (McKinley et al., Dev. Cell 40:405-420 (2017)) was evaluated in […] cell lines. […] The results are illustrated in FIG. 33.

[12] = biological target: tubulin from porcine brain (Sus scrofa, UniProt P02550+P02554); assay: Fluorescence-based tubulin polymerization assay; conditions: concentrations of up to 2.5 or 5 μM
Chain of tubulin from porcine brain (P02550 whole entry): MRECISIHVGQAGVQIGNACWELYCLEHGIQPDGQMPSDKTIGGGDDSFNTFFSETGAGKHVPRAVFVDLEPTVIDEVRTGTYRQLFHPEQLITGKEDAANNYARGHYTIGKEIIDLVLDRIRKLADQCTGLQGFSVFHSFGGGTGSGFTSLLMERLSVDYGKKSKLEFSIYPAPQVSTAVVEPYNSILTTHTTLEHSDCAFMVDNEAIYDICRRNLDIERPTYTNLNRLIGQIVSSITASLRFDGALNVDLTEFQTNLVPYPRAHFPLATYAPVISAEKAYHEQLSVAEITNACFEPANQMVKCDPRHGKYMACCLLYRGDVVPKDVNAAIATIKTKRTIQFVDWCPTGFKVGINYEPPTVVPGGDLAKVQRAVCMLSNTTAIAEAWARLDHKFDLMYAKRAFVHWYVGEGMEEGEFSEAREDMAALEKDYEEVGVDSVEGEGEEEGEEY
Chain of tubulin from porcine brain (P02554 whole entry): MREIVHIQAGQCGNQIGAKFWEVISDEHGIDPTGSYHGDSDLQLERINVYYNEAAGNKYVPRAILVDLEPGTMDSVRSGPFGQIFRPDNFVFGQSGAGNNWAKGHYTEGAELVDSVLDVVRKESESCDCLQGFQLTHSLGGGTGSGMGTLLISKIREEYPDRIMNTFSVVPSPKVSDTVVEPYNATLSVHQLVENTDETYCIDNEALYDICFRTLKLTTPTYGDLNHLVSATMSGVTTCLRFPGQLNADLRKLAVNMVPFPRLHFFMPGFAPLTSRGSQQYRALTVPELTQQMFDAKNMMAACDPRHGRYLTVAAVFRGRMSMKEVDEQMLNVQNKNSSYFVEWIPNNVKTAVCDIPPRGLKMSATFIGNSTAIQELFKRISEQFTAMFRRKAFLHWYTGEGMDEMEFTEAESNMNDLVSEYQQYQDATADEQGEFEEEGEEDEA
Experimental: Briefly, free tubulin (2 mg/mL) in buffer supplemented with 1 mM GTP and 15% glycerol was employed. Then, the test compounds were added to tubulin solution and changes in the fluorescence intensity (ex=370 nm, em=445 nm) were measured by kinetic reading at 37° C. using SpectraMax® M5 Microplate reader (Molecular Devices LLC).

T1 sequence (P30153 whole entry): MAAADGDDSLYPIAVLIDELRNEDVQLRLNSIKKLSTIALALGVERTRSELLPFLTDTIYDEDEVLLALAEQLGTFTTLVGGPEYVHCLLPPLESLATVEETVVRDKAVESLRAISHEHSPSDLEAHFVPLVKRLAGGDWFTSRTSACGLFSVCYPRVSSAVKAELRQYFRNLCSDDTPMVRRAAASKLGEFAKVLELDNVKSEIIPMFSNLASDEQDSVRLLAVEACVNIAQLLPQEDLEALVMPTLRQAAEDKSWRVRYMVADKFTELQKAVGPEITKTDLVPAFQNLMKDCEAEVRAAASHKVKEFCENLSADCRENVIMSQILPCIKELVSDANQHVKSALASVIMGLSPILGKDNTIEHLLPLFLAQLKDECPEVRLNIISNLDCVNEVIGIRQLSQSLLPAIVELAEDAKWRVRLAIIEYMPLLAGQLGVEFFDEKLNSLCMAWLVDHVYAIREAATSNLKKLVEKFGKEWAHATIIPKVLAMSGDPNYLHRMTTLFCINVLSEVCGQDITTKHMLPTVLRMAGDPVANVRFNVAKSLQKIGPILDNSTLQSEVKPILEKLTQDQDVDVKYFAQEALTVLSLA
T1 sequence (P67775 whole entry): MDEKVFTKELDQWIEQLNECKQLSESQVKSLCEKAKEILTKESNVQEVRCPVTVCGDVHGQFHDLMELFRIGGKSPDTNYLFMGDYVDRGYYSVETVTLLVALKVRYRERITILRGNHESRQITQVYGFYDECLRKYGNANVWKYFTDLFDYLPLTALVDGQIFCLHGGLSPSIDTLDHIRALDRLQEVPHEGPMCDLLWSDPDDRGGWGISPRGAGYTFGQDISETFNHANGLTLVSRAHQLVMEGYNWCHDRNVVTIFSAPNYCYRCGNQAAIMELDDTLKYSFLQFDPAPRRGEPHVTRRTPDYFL
T1 sequence (Q16537 whole entry): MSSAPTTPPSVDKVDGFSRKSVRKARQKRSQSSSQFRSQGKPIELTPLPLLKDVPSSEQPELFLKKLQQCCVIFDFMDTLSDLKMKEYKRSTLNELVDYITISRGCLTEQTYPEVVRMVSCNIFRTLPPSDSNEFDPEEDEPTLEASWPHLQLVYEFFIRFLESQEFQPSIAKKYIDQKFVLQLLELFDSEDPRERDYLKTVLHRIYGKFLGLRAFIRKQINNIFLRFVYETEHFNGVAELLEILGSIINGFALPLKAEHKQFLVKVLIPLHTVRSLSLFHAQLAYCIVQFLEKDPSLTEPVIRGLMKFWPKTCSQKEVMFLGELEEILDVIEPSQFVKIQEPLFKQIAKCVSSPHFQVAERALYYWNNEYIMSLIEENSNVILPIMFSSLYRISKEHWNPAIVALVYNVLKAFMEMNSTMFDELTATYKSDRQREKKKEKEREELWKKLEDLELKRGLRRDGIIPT

OCCN1CCN(CCCN2c3ccccc3Sc3ccc(Cl)cc32)CC1 [PPZ, perphenazine, reference compound]
swimming behaviour / movement disorder ([1]; 5 μM): exhibited movement disorders and swam upside down or on their sides | activity against T-ALL (GFP signal) ([2]; 5 μM, five days): some activity against T-ALL with reduced GFP signal | cell cycle status ([3]; 10 μM and 20 μM): induced significant G2/M phase arrest | thermal stabilization of PP2A subunits [4]: significantly enhanced stabilization of PPP2R1A, PPP2CA and PPP2R5E | protection of α or β tubulins from thermal degradation [5]: did not protect α or β tubulins from thermal degradation | mitotic and microtubule phenotype ([6]; 10 μM and 20 μM): prometaphase arrest at the monopolarity stage | phosphorylation of ERK and AKT [7]: significantly reduced

COc1ccc(C(=O)N2c3ccccc3Sc3ccc(Cl)cc32)cc1 [iPAP1]
IC50 ([8]; Homo sapiens, KOPTK1, 72 h, 72 hours, PrestoBlue, read-out: IC50 value against KOPT-K1 cells): ~400 nM | more active than PPZ for mediating T-ALL cell killing ([8]; KOPT-K1, 72 hours): 10 times | IC50 ([9]; Homo sapiens, KOPT-K1, SUPT-13 and RPMI-8402, 72 hours): 200 to 400 nM | more active than SMAP against T-ALL cells based on the IC50 ([9]; SUPT-13, KOPT-K1 and RPMI-8402): ~5 fold | swimming behaviour / movement disorder ([1]; 2 μM): swam upright | reduction of the GFP signal more than PPZ ([2]; 2 μM iPAP1 vs 5 μM PPZ, five days): at least 5 fold | GFP-positive leukemic area ([2]; serial dosage): dose dependent increased T-ALL cell killing | other blood cell counts [10]: unchanged | peripheral blood platelet counts [10]: significantly increased the platelet counts | cell cycle status ([3]; 1 μM and 2 μM): induced significant G2/M phase arrest | thermal stabilization of PP2A subunits [4]: protection of the PP2A subunits from thermal degradation similar to PPZ | protection of α or β tubulins from thermal degradation [5]: did not protect α or β tubulins from thermal degradation | mitotic and microtubule phenotype ([6]; 2 μM and 5 μM): prometaphase arrest at the monopolarity stage | relative mRNA expression [11]: significantly down-regulated the expression levels of most of these genes | inhibition of tubulin polymerization [12]: inhibition of tubulin polymerization was not detected
